Where a name gives a salt, the structure may show the parent alone.
Molecular target: T1, Smoothened (SMO) (Mus musculus, UniProt P56726)
T1 construct: C3H10T1/2 cells (ATCC #CCL-226) were split and seeded; endogenous in cells; host or cells: C3H10T1/2 (ATCC #CCL-226)
Test: Smoothened (SMO)/Sonic Hedgehog (SHh) Transient Transcriptional Activation Assay (Gli-luciferase reporter in C3H10T1/2 cells)
Format: cell-based, murine
Conditions: C3H 10T1/2, 2 μM compound; transfected C3H10T1/2 cells, recombinant human SHh 250 ng/mL, 20 hours, luciferase readout; read-out: SMO CELL % INHIBITION @ 2 μM
Procedure: As noted above, the compounds of the invention are useful as inhibitors of SMO. • Methods for determining the in vitro activity of these compounds are described below: Smoothened (SMO)/Sonic Hedgehog (SHh) Transient Transcriptional Activation Assay
On Day 1, 2×10^6 C3H10T1/2 cells (ATCC #CCL-226) were split and seeded in 12 mL of growth medium Basal Medium Eagle (BME, Invitrogen #21010-046) supplemented with 2 mM L-glutamine (Invitrogen #25030-081), 0.1 units/mL penicillin and 0.1 μg/mL streptomycin (Invitrogen #15140-122), and 10% Fetal Bovine Serum (FBS, Invitrogen #16140-071) in a T-75 flask (Costar #3376). They were allowed to attach for 4 hours at 37° C., 5% CO2. The cells were then transfected using Fugene 6 (Roch #11 814 443 001) in the following reaction: 48 μL Fugene 6 and 745 μL Opti-MEM (Invitrogen #31985-070) were mixed and allowed to sit at room temperature for 5 minutes. 8 μg of pGL4.14/mGli(CS) DNA (10× murine Gli response elements and minimal CS promoter) and 0.5 μg of pEGFP DNA (Clontech) were added, gently mixed and incubated at room temperature for 20 minutes. This entire transfection mix was then added to the T-75 flask containing the cells. The cells were incubated at 37° C., 5% CO2 for 18-24 hours.
On Day 2, the transfected cells were trypsinized and seeded into white 96 well plates (Costar #3917) in 100 μL/well of growth medium at a concentration of 20,000 cells/well. The cells were allowed to recover for 4 hours before adding serum starvation medium Dulbecco's Modified Eagle Medium (DMEM, Invitrogen #21063-029) supplemented with 2 mM L-glutamine, 0.1 units/mL penicillin and 0.1 μg/mL streptomycin, and 0.5% Calf Serum (CS, Invitrogen #26170-043). The growth media was aspirated off, and the cells were rinsed with 100 μL of starvation media. 95 μL of starvation media was then added to each well. The cells were incubated for 20 hours at 37° C., 5% CO2.
On Day 3, cells were dosed with test compounds at a final concentration ranging from 2 μM to 2 nM. Immediately after dosing cells with compounds, recombinant human sonic hedgehog (SHh, R&D Systems #1845-SH) was add to a final concentration of 250 ng/mL. A 25 μg vial of SHh was reconstituted with 250 μL PBS/0.1% BSA to give a 100 ng/μL working stock. This working stock was then diluted 1:20 in starvation media. The transfected cells were incubated with compounds and SHh for 20 hours at 37° C., 5% CO2.
Luciferase assays were conducted on Day 4 using Dual-Glo Luciferase assay system (Promega #E2940) according to Promega's protocol. Briefly, Dual-Glo luciferase reagent was made up and 100 μL were added to each well of the 96 well plate containing media. Plates were shaken at room temperature for 10 minutes, and then read on TopCount (Perkin-Elmer). The luminescence was recorded.

T1 sequence (P56726 33-793): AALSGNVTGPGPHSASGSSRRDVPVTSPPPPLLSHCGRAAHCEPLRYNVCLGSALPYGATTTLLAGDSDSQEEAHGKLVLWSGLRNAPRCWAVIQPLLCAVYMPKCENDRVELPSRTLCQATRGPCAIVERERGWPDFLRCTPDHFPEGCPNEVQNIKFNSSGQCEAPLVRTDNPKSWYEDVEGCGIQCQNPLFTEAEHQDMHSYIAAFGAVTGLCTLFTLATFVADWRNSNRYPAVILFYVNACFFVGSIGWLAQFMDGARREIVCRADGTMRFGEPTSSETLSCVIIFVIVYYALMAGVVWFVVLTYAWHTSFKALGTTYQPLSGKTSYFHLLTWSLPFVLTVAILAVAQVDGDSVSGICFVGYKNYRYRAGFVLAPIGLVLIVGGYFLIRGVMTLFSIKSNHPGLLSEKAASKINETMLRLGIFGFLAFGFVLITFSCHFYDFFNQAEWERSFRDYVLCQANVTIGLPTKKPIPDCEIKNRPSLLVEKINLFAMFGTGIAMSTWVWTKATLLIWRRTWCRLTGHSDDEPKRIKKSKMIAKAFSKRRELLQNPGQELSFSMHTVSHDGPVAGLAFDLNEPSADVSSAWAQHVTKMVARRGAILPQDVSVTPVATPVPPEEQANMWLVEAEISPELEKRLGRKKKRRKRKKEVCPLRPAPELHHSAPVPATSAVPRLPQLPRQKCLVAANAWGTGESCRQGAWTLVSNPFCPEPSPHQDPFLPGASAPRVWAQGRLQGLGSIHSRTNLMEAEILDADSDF

Row | inhibition at 2 µM | Compound
1 | 63% | COc1ccc2nc([C@@H]3C[C@H](NC(=O)Nc4ccc(Cl)c(C(F)(F)F)c4)CN3)[nH]c2c1 [Example 20, 1-[4-chloro-3-(trifluoromethyl)phenyl]-3-[(3S,5S)-5-(6-methoxy-1H-benzimidazol-2-yl)pyrrolidin-3-yl]urea]
2 | 102% | Cc1ccc2nc([C@@H]3C[C@H](NC(=O)Nc4ccc(Cl)c(C(F)(F)F)c4)CN3C)[nH]c2c1 [Example 22, 1-[4-chloro-3-(trifluoromethyl)phenyl]-3-[(3S,5S)-1-methyl-5-(6-methyl-1H-benzimidazol-2-yl)pyrrolidin-3-yl]urea]
3 | 100% | Cc1ccc2nc([C@@H]3C[C@@H](NC(=O)Nc4ccc(Cl)c(C(F)(F)F)c4)CN3C(C)C)[nH]c2c1 [Example 23, 1-[4-chloro-3-(trifluoromethyl)phenyl]-3-[(3R,5S)-1-isopropyl-5-(6-methyl-1H-benzimidazol-2-yl)pyrrolidin-3-yl]urea]
4 | 63.1% | CC(C)(C)OC(=O)N1C[C@H](NC(=O)Nc2ccc(Cl)c(C(F)(F)F)c2)C[C@H]1c1nc2ccccc2[nH]1 [Example 24, tert-butyl (2S,4R)-2-(1H-benzimidazol-2-yl)-4-[({[4-chloro-3-(trifluoromethyl)phenyl]amino}carbonyl)amino]pyrrolidine-1-carboxylate]
5 | 105% | COc1ccc2nc([C@@H]3C[C@H](NC(=O)Nc4ccc(Cl)c(C(F)(F)F)c4)CN3C)[nH]c2c1 [Example 25, 1-[4-chloro-3-(trifluoromethyl)phenyl]-3-[(3S,5S)-5-(6-methoxy-1H-benzimidazol-2-yl)-1-methylpyrrolidin-3-yl]urea]
6 | 109% | CN1CC[C@@H](NC(=O)Nc2ccc(Cl)c(C(F)(F)F)c2)C[C@@H]1c1nc2ccccc2[nH]1 [Example 26, 1-[(2R,4R)-2-(1H-benzimidazol-2-yl)-1-methylpiperidin-4-yl]-3-[4-chloro-3-(trifluoromethyl)phenyl]urea hydrochloride]
7 | 108% | CN1CC[C@@H](NC(=O)Nc2cc(Cl)cc(Cl)c2)C[C@@H]1c1nc2ccccc2[nH]1 [Example 28, 1-[(2R,4R)-2-(1H-benzimidazol-2-yl)-1-methylpiperidin-4-yl]-3-(3,5-dichlorophenyl)urea hydrochloride]
8 | 107% | CN1CC[C@@H](NC(=O)Nc2ccc(F)nc2)C[C@@H]1c1nc2ccccc2[nH]1 [Example 32, 1-[(2R,4R)-2-(1H-benzimidazol-2-yl)-1-methylpiperidin-4-yl]-3-(6-fluoropyridin-3-yl)urea hydrochloride]
9 | 107% | CN1CC[C@@H](NC(=O)Nc2ccc(C(F)(F)F)nc2)C[C@@H]1c1nc2cc(C(F)(F)F)ccc2[nH]1 [Example 35, 1-{(2R,4R)-1-methyl-2-[5-(trifluoromethyl)-1H-benzimidazol-2-yl]piperidin-4-yl}-3-[6-(trifluoromethyl)pyridin-3-yl]urea hydrochloride]
10 | 107% | Cc1ccc2[nH]c([C@H]3C[C@H](NC(=O)Nc4ccc(C#N)cc4)CCN3C)nc2c1 [Example 36, 1-(4-cyanophenyl)-3-[(2R,4R)-1-methyl-2-(5-methyl-1H-benzimidazol-2-yl)piperidin-4-yl]urea hydrochloride]
11 | 106% | Cc1cc(NC(=O)N[C@@H]2CCN(C)[C@@H](c3nc4ccccc4[nH]3)C2)cnc1F [Example 40, 1-[(2R,4R)-2-(1H-benzimidazol-2-yl)-1-methylpiperidin-4-yl]-3-(6-fluoro-5-methylpyridin-3-yl)urea hydrochloride]

The remaining lines, values behind:

Row | Compound | inhibition at 2 µM
12 | CN1CC[C@@H](NC(=O)Nc2ccc(C(F)(F)F)cc2)C[C@@H]1c1nc2ccccc2[nH]1 [Example 18, 1-[(2R,4R)-2-(1H-benzimidazol-2-yl)-1-methylpiperidin-4-yl]-3-[4-(trifluoromethyl)phenyl]urea hydrochloride] | 110%
13 | CN1CC[C@@H](NC(=O)Nc2ccc(C#N)cc2)C[C@@H]1c1nc2cc(C#N)ccc2[nH]1 [Example 19, 1-[(2R,4R)-2-(5-cyano-1H-benzimidazol-2-yl)-1-methylpiperidin-4-yl]-3-(4-cyanophenyl)urea hydrochloride] | 109%
14 | CN1C[C@@H](NC(=O)c2ccc3c(c2)OCCO3)C[C@H]1c1nc2ccccc2[nH]1 [Example 21, N-[(3S,5S)-5-(1H-benzimidazol-2-yl)-1-methylpyrrolidin-3-yl]-2,3-dihydro-1,4-benzodioxine-6-carboxamide] | 61.8%
15 | CN(C)c1ccc2[nH]c([C@H]3C[C@H](NC(=O)c4ccc5c(c4)OCCO5)CCN3C)nc2c1 [Example 27, N-{(2R,4R)-2-[5-(dimethylamino)-1H-benzimidazol-2-yl]-1-methylpiperidin-4-yl}-2,3-dihydro-1,4-benzodioxine-6-carboxamide hydrochloride] | 108%
16 | COc1ccc2[nH]c([C@H]3C[C@H](NC(=O)Nc4ccc(C#N)cc4)CCN3C)nc2c1 [Example 29, 1-(4-cyanophenyl)-3-[(2R,4R)-2-(5-methoxy-1H-benzimidazol-2-yl)-1-methylpiperidin-4-yl]urea hydrochloride] | 108%
17 | CN1CC[C@@H](NC(=O)Nc2ccc(Cl)cc2)C[C@@H]1c1nc2ccccc2[nH]1 [Example 30, 1-[(2R,4R)-2-(1H-benzimidazol-2-yl)-1-methylpiperidin-4-yl]-3-(4-chlorophenyl)urea hydrochloride] | 108%
18 | CN1CC[C@@H](NC(=O)Nc2ccc(C#N)cc2)C[C@@H]1c1nc2ccccc2[nH]1 [Example 31, 1-[(2R,4R)-2-(1H-benzimidazol-2-yl)-1-methylpiperidin-4-yl]-3-(4-cyanophenyl)urea hydrochloride] | 107%
19 | CN1CC[C@@H](NC(=O)c2ccc3c(c2)CCCO3)C[C@@H]1c1nc2ccccc2[nH]1 [Example 33, N-[(2R,4R)-2-(1H-benzimidazol-2-yl)-1-methylpiperidin-4-yl]chromane-6-carboxamide hydrochloride] | 114%
20 | CN1CC[C@@H](NC(=O)c2ccc3c(c2)OCCO3)C[C@@H]1c1nc2ccc(Cl)cc2[nH]1 [Example 34, N-[(2R,4R)-2-(6-chloro-1H-benzimidazol-2-yl)-1-methylpiperidin-4-yl]-2,3-dihydro-1,4-benzodioxine-6-carboxamide hydrochloride] | 107%
21 | COc1ccc(NC(=O)N[C@@H]2CCN(C)[C@@H](c3nc4ccccc4[nH]3)C2)cc1 [Example 37, 1-[(2R,4R)-2-(1H-benzimidazol-2-yl)-1-methylpiperidin-4-yl]-3-(4-methoxyphenyl)urea hydrochloride] | 106%
22 | COc1ccc2nc([C@H]3C[C@H](NC(=O)c4ccc5c(c4)OCCO5)CCN3C)[nH]c2c1 [Example 38, N-[(2R,4R)-2-(6-methoxy-1H-benzimidazol-2-yl)-1-methylpiperidin-4-yl]-2,3-dihydro-1,4-benzodioxine-6-carboxamide hydrochloride] | 106%
23 | CC(C)CN1CC[C@@H](NC(=O)Nc2ccc(C#N)cc2)C[C@@H]1c1nc2ccccc2[nH]1 [Example 39, 1-[(2R,4R)-2-(1H-benzimidazol-2-yl)-1-isobutylpiperidin-4-yl]-3-(4-cyanophenyl)urea] | 106%
24 | CN1CC[C@@H](NC(=O)Nc2cc(F)cc3c2OCOC3)C[C@@H]1c1nc2ccccc2[nH]1 [Example 41, 1-[(2R,4R)-2-(1H-benzimidazol-2-yl)-1-methylpiperidin-4-yl]-3-(6-fluoro-4H-1,3-benzodioxin-8-yl)urea hydrochloride] | 106%
25 | CN1CC[C@@H](NC(=O)c2ccc3c(c2)OCCO3)C[C@H]1c1nc2ccccc2[nH]1 [Example 42, N-[(2S,4R)-2-(1H-benzimidazol-2-yl)-1-methylpiperidin-4-yl]-2,3-dihydro-1,4-benzodioxine-6-carboxamide hydrochloride] | 106%
